One data set can be described thus: Solubility in excipients. Format: physicochemical. The note with it: diverse set of excipients, covering an HLB range of 1 to 20 and above.
Another data set in a line: Solubility in water. The note with it: across the whole pH range. Type of data set: physicochemical.

As for `CCc1cc2c(cc1N1CCC(N3CCOCC3)CC1)C(C)(C)c1[nH]c3cc(C#N)ccc3c1C2=O` [9-ethyl-6,6-dimethyl-8-(4-morpholin-4-yl-piperidin-1-yl)-11-oxo-6,11-dihydro-5H-benzo[b]carbazole-3-carbonitrile], the solubility in excipients result in the data set “Solubility in excipients” was “poorly soluble”. In “Solubility in water”, the solubility in water result is “practically insoluble in water”.

The values are drawn from patent US12005064B2, “Pharmaceutical composition comprising non-ionic surfactants” (priority 2014, dated 2024).
